Counter-ions that a name gives are not always drawn.
Tests used:
human RORγt LBD = target: T1, human RORγt LBD (Homo sapiens, UniProt P51449); assay: RORγt reporter assay (GAL4-RORγt LBD luciferase in HEK293T cells); format: cell-based; settings: for inhibition at 6 µM: HEK-293T, read-out: RORγt reporter Assay, % inhibition @ 6 μM, HEK293T cells, 6 μM compound; for IC50 / RORγt reporter Assay, % inhibition @ 6 μM: HEK293T cells; for IC50: 24 hours compound treatment; for RORγt reporter Assay, % inhibition @ 6 μM: 6 μM compound
T1 construct: expressed in transfected cells
T1 sequence (P51449 258-518): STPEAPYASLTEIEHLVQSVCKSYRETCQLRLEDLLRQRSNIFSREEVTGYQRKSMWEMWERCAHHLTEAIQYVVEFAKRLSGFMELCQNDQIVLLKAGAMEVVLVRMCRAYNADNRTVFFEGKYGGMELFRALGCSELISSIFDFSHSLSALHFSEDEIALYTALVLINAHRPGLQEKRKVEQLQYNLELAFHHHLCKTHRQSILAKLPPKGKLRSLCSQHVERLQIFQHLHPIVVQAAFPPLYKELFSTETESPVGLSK
Text: A reporter assay was used to test functional activity of RORγt modulatory compounds on transcriptional activation driven by the RORγt LBD. Cells used in the assay were co-transfected with two constructs. The first construct, pBIND-RORγt LBD, contained the wild type human RORγt LBD fused to the DNA binding domain of the GAL4 protein. The second construct, pGL4.31 (Promega Cat no. C935A), contained multiple GAL4 responsive DNA elements upstream of firefly luciferase. […] The mutant construct was called pBIND-RORγt-AF2.
The pBIND vector contains the GAL4 DNA Binding Domain (GAL4 DBD) and the renilla luciferase gene under control of the SV40 promoter. Renilla luciferase expression serves as a control for transfection efficiency and cell viability.
The reporter assay was performed by transiently transfecting HEK293T cells with 5 ng of pBIND-RORγt LBD or pBIND-RORγt LBD-AF2 and 5 μg pGL4.31 (Promega Cat no. C935A) using Fugene 6 (Invitrogen Cat no. E2691) at a 1:6 ratio of DNA:Fugene 6 in a T-75 flask in which cells were at least 80% confluent. Twenty four hours after bulk transfection, cells were plated into 96-well plates at 50,000 cells/well in phenol-red free DMEM containing 5% Lipid Reduced FCS and Pen/Strep. Six hours after plating, cells were treated with compounds for 24 hours. Media was removed and cells were lysed with 50 μL 1× Glo Lysis Buffer (Promega). Dual Glo Luciferase Reagent (50 μL/well) was then added and firefly luciferase luminescence was read on an Envision after a ten minute incubation. Finally, Stop and Glo reagent (50 μL/well) was added and renilla luciferase luminescence was read on an Envision after a ten minute incubation. To calculate the effect of compounds on RORγt activity, the ratio of firefly to renilla luciferase was determined and plotted against compound concentration. Agonist compounds increase RORγt-driven luciferase expression, and antagonist or inverse agonist compounds decrease luciferase expression.

[1] = target: T2, human RORγt ligand binding domain (RORγt LBD) (Homo sapiens, UniProt P51449); assay: RORγt ThermoFluor assay (thermal shift, ligand binding affinity); settings: estimated from concentration response of thermal shift
T2 construct: His-tag (N); TurboTEV protease cleavage site (ENLYFQG) (N); made in house; host or cells: E. coli (pHIS1, modified pET vector)
T2 sequence (P51449 with tags, fused parts or gaps): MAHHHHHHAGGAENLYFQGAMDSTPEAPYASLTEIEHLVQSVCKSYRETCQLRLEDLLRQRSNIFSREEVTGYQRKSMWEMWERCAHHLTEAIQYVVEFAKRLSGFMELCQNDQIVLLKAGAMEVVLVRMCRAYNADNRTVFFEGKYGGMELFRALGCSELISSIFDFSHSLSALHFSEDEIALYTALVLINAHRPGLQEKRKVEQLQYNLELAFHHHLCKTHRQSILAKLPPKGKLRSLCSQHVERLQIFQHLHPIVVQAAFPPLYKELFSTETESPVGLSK
Experimental: This approach is applicable to a wide variety of systems, and rigorous in theoretical interpretation through quantitation of equilibrium binding constants (KD).
The shift in the melting point described as a ΔTm is proportional to the concentration and affinity of the ligand.
RORγt ThermoFluor® Assay Construct
Protein and compound solutions are dispensed into black 384-well polypropylene PCR microplates (Abgene) and overlayed with silicone oil (1 μL Fluka, type DC 200) to prevent evaporation.
Fluorescence was measured by continuous illumination with UV light (Hamamatsu LC6) supplied via fiber optic and filtered through a band-pass filter (380-400 nm; >6 OD cutoff). Fluorescence emission of the entire 384-well plate was detected by measuring light intensity using a CCD camera (Sensys, Roper Scientific) filtered to detect 500±25 nm, resulting in simultaneous and independent readings of all 384 wells. Images were collected at each temperature, and the sum of the pixel intensity in a given area of the assay plate was recorded versus temperature. Reference wells contained RORγt without compounds, and the assay conditions were as follows: • 0.065 mg/mL RORγt • 60 μM 1,8-ANS • 100 mM Hepes, pH 7.0 • 10 mM NaCl • 2.5 mM GSH • 0.002% Tween-20
Project compounds were arranged in a pre-dosed mother plate (Greiner Bio-one) wherein compounds are serially diluted in 100% DMSO by 1:2 from a high concentration of 10 mM over 12 columns within a series (column 12 is a reference well containing DMSO, no compound).
The compounds were robotically dispensed directly into assay plates (1×=[…]) using a Hummingbird capillary liquid handling instrument (Digilab). Following compound dispense, protein and dye in buffer was added to achieve the final assay volume of 3 μL, followed by 1 μL of silicone oil.

SMILES: Cn1cncc1C(O)(c1ccc(C(F)(F)F)nc1)c1ccc2nc(C(F)(F)F)c(-c3ccccc3)c(C#N)c2c1 (racemic) [Example 173a, 6-(Hydroxy(1-methyl-1H-imidazol-5-yl)(6-(trifluoromethyl)pyridin-3-yl)methyl)-3-phenyl-2-(trifluoromethyl)quinoline-4-carbonitrile•TFA]
- inhibition at 6 µM (human RORγt LBD): 103%

SMILES: CC(=O)N1CCC(C(O)(c2ccc3nc(C(F)(F)F)c(-c4ccccc4)c(C(F)(F)F)c3c2)c2cncn2C)CC1 (racemic) [Example 181a, 1-(4-(Hydroxy(1-methyl-1H-imidazol-5-yl)(3-phenyl-2,4-bis(trifluoromethyl)quinolin-6-yl)methyl)piperidin-1-yl)ethanone]
- Kd [1]: 16 nM
- IC50 (human RORγt LBD): 140 nM
- inhibition at 6 µM (human RORγt LBD): 101%

SMILES: COc1nc2c(C)cc(C(O)(c3ccc(C(F)(F)F)nc3)c3cncn3C)cc2c(Cl)c1-c1ccc(OC(F)(F)F)cc1 (racemic) [Example 183a, (4-Chloro-2-methoxy-8-methyl-3-(4-(trifluoromethoxy)phenyl)quinolin-6-yl)(1-methyl-1H-imidazol-5-yl)(6-(trifluoromethyl)pyridin-3-yl)methanol•TFA]
- Kd [1]: 9.3 nM
- IC50 (human RORγt LBD): > 6000 nM

SMILES: Cn1cncc1C(O)(c1ccc2nc(C(F)(F)F)c(-c3ccccc3)c(C(F)(F)F)c2c1)c1ccccn1 (racemic) [Example 185a, (1-Methyl-1H-imidazol-5-yl)(3-phenyl-2,4-bis(trifluoromethyl)quinolin-6-yl)(pyridin-2-yl)methanol]
- Kd [1]: 74 nM
- IC50 (human RORγt LBD): 200 nM
- inhibition at 6 µM (human RORγt LBD): 100%

SMILES: Cn1cncc1C(O)(c1ccc(Cl)cc1)c1ccc2nc(Cl)c(-c3ccccc3Cl)c(Cl)c2c1 (single isomer, unassigned) [Example 153d, (4-Chlorophenyl)(2,4-dichloro-3-(2-chlorophenyl)quinolin-6-yl)(1-methyl-1H-imidazol-5-yl)methanol]
- Kd [1]: 3500 nM
- RORγt reporter Assay, % inhibition @ 6 μM (human RORγt LBD): 75%
- IC50 (human RORγt LBD): 1500 nM

SMILES: Cn1cncc1C(O)(c1ccc(C(F)(F)F)nc1)c1ccc2nc(C(F)(F)F)c(-c3ccccc3)c(C#N)c2c1 (single isomer, unassigned) [Example 173b, 6-(Hydroxy(1-methyl-1H-imidazol-5-yl)(6-(trifluoromethyl)pyridin-3-yl)methyl)-3-phenyl-2-(trifluoromethyl)quinoline-4-carbonitrile]
- inhibition at 6 µM (human RORγt LBD): 100%

SMILES: Cc1cc(C(O)(c2ccc(F)cc2)c2cncn2C)cc2c(C#N)c(-c3cccc(F)c3)c(C#N)nc12 (single isomer, unassigned) [Example 175b, 3-(3-Fluorophenyl)-6-((4-fluorophenyl)(hydroxy)(1-methyl-1H-imidazol-5-yl)methyl)-8-methylquinoline-2,4-dicarbonitrile]
- Kd [1]: 8200 nM
- IC50 (human RORγt LBD): 2100 nM
- inhibition at 6 µM (human RORγt LBD): 76%

SMILES: Cc1cc(C(O)(c2ccc(C(F)(F)F)nc2)c2cncn2C)cc2c(C#N)c(-c3cccc(F)c3)c(C#N)nc12 (single isomer, unassigned) [Example 176b, 3-(3-Fluorophenyl)-6-(hydroxy(1-methyl-1H-imidazol-5-yl)(6-(trifluoromethyl)pyridin-3-yl)methyl)-8-methylquinoline-2,4-dicarbonitrile]
- Kd [1]: 3400 nM
- IC50 (human RORγt LBD): 1500 nM
- inhibition at 6 µM (human RORγt LBD): 94%

SMILES: COc1nc2c(C)cc(C(O)(c3ccc(F)cc3)c3cncn3C)cc2c(Cl)c1-c1cccc(F)c1 (single isomer, unassigned) [Example 178b, (4-Chloro-3-(3-fluorophenyl)-2-methoxy-8-methylquinolin-6-yl)(4-fluorophenyl)(1-methyl-1H-imidazol-5-yl)methanol]
- Kd [1]: 21000 nM
- RORγt reporter Assay, % inhibition @ 6 μM (human RORγt LBD): 72%
- IC50 (human RORγt LBD): 610 nM

SMILES: COc1nc2c(C)cc(C(O)(c3ccc(C(F)(F)F)nc3)c3cncn3C)cc2c(C#N)c1-c1cccc(F)c1 (single isomer, unassigned) [Example 179b, 3-(3-Fluorophenyl)-6-(hydroxy(1-methyl-1H-imidazol-5-yl)(6-(trifluoromethyl)pyridin-3-yl)methyl)-2-methoxy-8-methylquinoline-4-carbonitrile]
- Kd [1]: 6600 nM
- IC50 (human RORγt LBD): 1300 nM
- inhibition at 6 µM (human RORγt LBD): 98%

SMILES: Cc1cc(C(O)(c2ccc(C(F)(F)F)nc2)c2cncn2C)cc2c(C#N)c(-c3ccc(F)cc3)c(C#N)nc12 (single isomer, unassigned) [Example 184b, 3-(4-Fluorophenyl)-6-(hydroxy(1-methyl-1H-imidazol-5-yl)(6-(trifluoromethyl)pyridin-3-yl)methyl)-8-methylquinoline-2,4-dicarbonitrile]
- Kd [1]: 2500 nM
- IC50 (human RORγt LBD): 3000 nM
- inhibition at 6 µM (human RORγt LBD): 99%

SMILES: Cn1cncc1C(O)(c1ccc2nc(C(F)(F)F)c(-c3ccccc3)c(C(F)(F)F)c2c1)c1ccccn1 (single isomer, unassigned) [Example 185c, (1-Methyl-1H-imidazol-5-yl)(3-phenyl-2,4-bis(trifluoromethyl)quinolin-6-yl)(pyridin-2-yl)methanol]
- Kd [1]: 760 nM
- RORγt reporter Assay, % inhibition @ 6 μM (human RORγt LBD): 91%
- IC50 (human RORγt LBD): 810 nM

SMILES: Cc1nn(C)c(C)c1C(O)(c1ccccc1)c1ccc2nc(Cl)c(-c3ccccc3)c(Cl)c2c1 (centres unmarked) [Example 4, (2,4-Dichloro-3-phenylquinolin-6-yl)(phenyl)(1,3,5-trimethyl-1H-pyrazol-4-yl)methanol]
- Kd [1]: 3300 nM
- IC50 (human RORγt LBD): 3200 nM
- inhibition at 6 µM (human RORγt LBD): 97%

SMILES: CC(C)(C)OC(=O)N1CCCC(C(O)(c2cccnc2)c2ccc3nc(Cl)c(-c4ccccc4)c(Cl)c3c2)C1 (centres unmarked) [Example 5, tert-Butyl 3-((2,4-Dichloro-3-phenylquinolin-6-yl)(hydroxy)(pyridin-3-yl)methyl)piperidine-1-carboxylate]
- Kd [1]: 21000 nM
- IC50 (human RORγt LBD): 380 nM
- inhibition at 6 µM (human RORγt LBD): 79%

SMILES: Cc1nn(C)c(C)c1C(O)(c1ccccc1)c1ccc2nc(Cl)c(-c3ccccc3Cl)c(Cl)c2c1 (centres unmarked) [Example 7, (2,4-Dichloro-3-(2-chlorophenyl)quinolin-6-yl)(phenyl)(1,3,5-trimethyl-1H-pyrazol-4-yl)methanol]
- Kd [1]: 5300 nM
- IC50 (human RORγt LBD): 1200 nM
- inhibition at 6 µM (human RORγt LBD): 83%

SMILES: COc1nc2ccc(C(O)(c3ccc(Cl)cc3)c3cncn3C)cc2cc1-c1ccccc1 (centres unmarked) [Example 9]
- Kd [1]: 7100 nM
- IC50 (human RORγt LBD): 6100 nM
- inhibition at 6 µM (human RORγt LBD): 70%

SMILES: Cc1ccc(C(O)(c2cc[nH]c2)c2cc(C)c3nc(Cl)c(-c4ccccc4)c(Cl)c3c2)cn1 (centres unmarked) [Example 157, (2,4-Dichloro-8-methyl-3-phenylquinolin-6-yl)(6-methylpyridin-3-yl)(1H-pyrrol-3-yl)methanol•TFA]
- Kd [1]: 2800 nM

From patent publication US9309222B2, “Phenyl linked quinolinyl modulators of RORγt” (Janssen Pharmaceutica NV, priority 2012, dated 2016)
